{
  "source": "patent US20250235437A1",
  "about": "“PROTEOLYSIS TARGETING CHIMERA (PROTAC) MOLECULE FOR DEGRADATION OF ENL AND CANCER THERAPY” (Baylor College of Medicine, priority 2022, published 2025)",
  "key": {"[1]": {"tested_on": "Molm-13 cells", "assay": "Anti-proliferative activity, Molm-13 cells", "assay_type": "cell-based", "conditions": "Molm-13 cells, FIG. 6B"}, "[2]": {"tested_on": "Molm-13 cells", "assay": "Gene profiling and GSEA in Molm-13 cells", "assay_type": "cell-based", "conditions": "500 nM", "protocol": "Gene profiling was performed to find how compound 1 affects global gene transcriptome. mRNAs from the control and compound 1 (500 nM) treated Molm-13 cells were extracted, purified and sequenced. Bioinformatic analysis was performed to find differentially expressed genes between the treated and control cells, which were used for gene set enrichment analysis (GSEA). […] These clearly indicate that treatment with compound 1 recapitulated ENL knockout with similar patterns of gene expression changes."}, "[3]": {"tested_on": "HoxA9, Meis1 and Myc", "assay": "Expression of HoxA9, Meis1 and Myc in Molm-13 cells", "assay_type": "cell-based", "conditions": "4 days", "protocol": "Previous studies show ENL is required for expression of MLL1-target genes in MLL1-r leukemia. How compound 1-mediated ENL degradation changes expression of HoxA9, Meis1 and Myc, three characteristic genes in MLL1-r leukemia, was examined. Molm-13 cells were treated with compound 1 for 4 days, after which the RNAs were extracted and analyzed."}, "[4]": {"target": "T1, mutant ENL (mENL) (Homo sapiens, UniProt Q03111, INS117NHL)", "T1 construct": "expressed in transfected cells; host or cells: HEK293T", "T1 sequence (Q03111 with tags, fused parts or gaps INS117NHL)": "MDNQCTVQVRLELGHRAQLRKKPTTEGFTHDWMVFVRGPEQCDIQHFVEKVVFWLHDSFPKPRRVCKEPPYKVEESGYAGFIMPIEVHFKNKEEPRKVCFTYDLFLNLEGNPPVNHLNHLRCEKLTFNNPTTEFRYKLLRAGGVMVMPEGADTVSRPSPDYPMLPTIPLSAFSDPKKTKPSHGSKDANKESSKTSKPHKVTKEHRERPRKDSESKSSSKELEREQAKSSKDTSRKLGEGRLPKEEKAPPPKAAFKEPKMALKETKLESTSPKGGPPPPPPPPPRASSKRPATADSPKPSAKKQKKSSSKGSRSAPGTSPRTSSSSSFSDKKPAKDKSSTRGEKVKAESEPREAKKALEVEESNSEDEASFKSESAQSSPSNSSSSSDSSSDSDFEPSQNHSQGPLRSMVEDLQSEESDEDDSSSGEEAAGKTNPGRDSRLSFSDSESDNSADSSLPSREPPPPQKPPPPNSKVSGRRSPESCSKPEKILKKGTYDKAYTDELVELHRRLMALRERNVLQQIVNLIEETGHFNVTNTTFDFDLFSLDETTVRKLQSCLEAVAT", "T1 sequence (Q96SW2 whole entry partner)": "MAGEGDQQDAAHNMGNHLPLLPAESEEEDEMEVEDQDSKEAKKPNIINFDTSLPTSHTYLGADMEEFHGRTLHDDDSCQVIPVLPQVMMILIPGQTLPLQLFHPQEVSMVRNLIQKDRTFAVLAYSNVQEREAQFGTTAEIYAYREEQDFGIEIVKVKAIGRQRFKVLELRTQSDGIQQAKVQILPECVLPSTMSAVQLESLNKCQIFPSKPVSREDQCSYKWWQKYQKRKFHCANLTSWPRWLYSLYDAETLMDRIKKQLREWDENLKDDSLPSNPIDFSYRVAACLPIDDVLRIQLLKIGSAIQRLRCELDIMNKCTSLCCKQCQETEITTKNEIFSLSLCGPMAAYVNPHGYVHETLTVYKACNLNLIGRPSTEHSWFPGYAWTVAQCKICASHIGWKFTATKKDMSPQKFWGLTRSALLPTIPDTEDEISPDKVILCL", "assay": "Degradation of mutant and WT ENL in transfected HEK293T cells", "assay_type": "cell-based", "protocol": "Ability of compound 1 to degrade mutant ENL, which has been implicated to cause Wilms tumor, was evaluated. […] A pcDNA3.1(+)-N-DYK plasmid containing a mutant ENL (mENL) with a short insertion of -NHL- between L117 and R118 was transfected into 5×10^5 HEK293T cells. Upon incubation for 24 h, expression of the FLAG-tagged mENL can be dose-dependently detected with as low as […] of the plasmid (FIG. 7A). Using a FLAG antibody appeared to be less quantitative because of a higher background staining for the control samples (FIGS. 7A-7C, left panels).\nWith 0.1 μg of the plasmid, compound 1 can efficiently degrade both WT and mutant ENL proteins with Dmax of ˜95% at ˜500 nM upon 24 h incubation (FIG. 7B). […] It was ineffective with […] of the plasmid (not shown), presumably because the rate of mENL synthesis in cells was higher than that of 1-mediated degradation."}, "[5]": {"tested_on": "AF9, AFF4, cyclin-T1, DOT1L", "assay": "Levels of other SEC-related proteins in MV4;11 cells, 4 days (Western blot)", "assay_type": "cell-based", "conditions": "nucleus", "source_text": "Applicant further investigated how compound 1 affects ENL, AF9 and other proteins of SEC in the cytoplasmic and nuclear compartments, the latter of which are more relevant to the functions of these transcription cofactors. […] Upon treatment of MV4;11 cells with these compounds for 4 days, cytoplasmic and nuclear proteins were separated and subjected to SDS-PAGE/Western blot."}, "[6]": {"tested_on": "Molm-13 cells", "assay": "Apoptosis of Molm-13 cells", "assay_type": "cell-based", "protocol": "Treatment of Molm-13 cells with compound 1 for 7 days at 1 and 3 μM caused significant apoptosis of 22.7% and 67.6%, respectively (FIG. 6C)."}, "[7]": {"tested_on": "Hela cell", "assay": "Anti-proliferative activity, Hela cells", "assay_type": "cell-based", "conditions": "Hela (cervical) cells; read-out: EC50, proliferation"}, "[8]": {"target": "T2, ENL (Homo sapiens, UniProt Q03111)", "T2 construct": "tested whether the compounds degrade ENL and AF9 in MV4;11 leukemia cells; endogenous in cells; host or cells: MV4;11; Molm-13", "T2 sequence (Q03111 1-559)": "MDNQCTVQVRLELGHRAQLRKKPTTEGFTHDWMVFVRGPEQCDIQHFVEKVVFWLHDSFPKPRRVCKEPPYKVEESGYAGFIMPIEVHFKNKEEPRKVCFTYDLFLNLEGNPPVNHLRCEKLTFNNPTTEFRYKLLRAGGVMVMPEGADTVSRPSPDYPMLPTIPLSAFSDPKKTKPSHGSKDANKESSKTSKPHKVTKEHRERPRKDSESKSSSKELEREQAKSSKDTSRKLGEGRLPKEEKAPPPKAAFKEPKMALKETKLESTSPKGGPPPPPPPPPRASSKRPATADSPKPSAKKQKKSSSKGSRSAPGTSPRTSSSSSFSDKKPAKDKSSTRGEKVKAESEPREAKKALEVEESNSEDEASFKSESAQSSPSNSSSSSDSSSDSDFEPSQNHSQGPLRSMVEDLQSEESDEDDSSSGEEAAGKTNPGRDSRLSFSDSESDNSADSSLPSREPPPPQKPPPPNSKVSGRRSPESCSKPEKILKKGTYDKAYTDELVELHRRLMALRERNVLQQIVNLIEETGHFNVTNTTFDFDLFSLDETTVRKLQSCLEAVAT", "assay": "Nuclear and cytoplasmic ENL levels in MV4;11 cells, 4 days (Western blot)", "assay_type": "cell-based", "source_text": "Upon treatment of MV4;11 cells with these compounds for 4 days, cytoplasmic and nuclear proteins were separated and subjected to SDS-PAGE/Western blot."}, "[9]": {"tested_on": "Myc", "assay": "Myc expression in RPMI-8226 cells", "assay_type": "cell-based", "conditions": "4 days"}, "[10]": {"tested_on": "RPMI-8226 cells", "assay": "Anti-proliferative activity, RPMI-8226 cells", "assay_type": "cell-based"}, "[11]": {"tested_on": "Hela cell", "conditions": "Hela cells, footnote b: reported in Li, et al. J Hematol Oncol, 2022; read-out: Anti-proliferative activity EC50, Hela; cited from earlier work"}, "[12]": {"tested_on": "Molm-13 leukemia", "assay": "Subcutaneous Molm-13 leukemia xenograft in NOD-SCID mice", "assay_type": "in vivo", "protocol": "In vivo antitumor activity of compound 1 was evaluated in a commonly used mouse model of Molm-13 leukemia. First, in vivo toxicity was assessed in C57BL/6 mice. […] Next, 10^6 Molm-13 cells were injected subcutaneously into NOD-SCID mice, which developed palpable tumors in ˜1 week and grew rapidly."}, "[13]": {"tested_on": "AF9, AFF4, cyclin-T1 and H3K79me2", "assay": "ChIP-qPCR, AF9, AFF4, cyclin-T1 and H3K79me2 at Myc and HoxA9 gene promoters", "assay_type": "cell-based", "conditions": "500 nM", "source_text": "Chromatin immunoprecipitation (ChIP) followed by qPCR was used to further probe the activity of compound 1 in the gene promoters of Myc and HoxA9, two characteristic MLL1 target genes."}},
  "note": "Where two headings read alike, the source gives them in different places.",
  "data": [
    {"smiles": "C[C@H]1CCCN1Cc1nc2cc(NC(=O)c3ccc4c(cnn4CCCCCCCCNc4cccc5c4C(=O)N(C4CCC(=O)NC4=O)C5=O)c3)ccc2[nH]1", "note": "(stereo partly drawn) [Compound 1]", "values": [
      {"measurement": "time-dependent activity against cell proliferation", "setting": "[1]", "result": "did not inhibit cell proliferation during the first 4 days"},
      {"measurement": "normalized enrichment score (NES), gene set upregulated upon ENL knockout", "setting": "[2]; 4 days, GSEA panel 1", "result": 7.46},
      {"measurement": "normalized enrichment score (NES), gene set downregulated upon ENL knockout", "setting": "[2]; 4 days, GSEA panel 2", "result": "−4.26"},
      {"measurement": "transcription of Myc-target genes", "setting": "[2]; GSEA panel 7", "result": "significantly downregulated"},
      {"measurement": "gene sets regulated by knockdown of MLL-AF9 or -ENL", "setting": "[2]; GSEA panels 3 and 4", "result": "significantly up- and down-regulated"},
      {"measurement": "expression of HoxA9-regulated genes", "setting": "[2]; GSEA panels 5 and 6", "result": "reversed expression patterns"},
      {"measurement": "expression of HoxA9, Meis1 and Myc", "setting": "[3]", "result": "significantly inhibit expression of these three genes in a generally dose-dependent manner"},
      {"measurement": "Dmax, WT and mutant ENL", "setting": "[4]; 0.1 μg plasmid, ~500 nM, 24 h incubation", "result": "~95", "unit": "%"},
      {"measurement": "degradation of WT and mutant ENLs", "setting": "[4]; 0.2 μg plasmid, 500 nM", "result": "reduced efficiency"},
      {"measurement": "degradation of WT and mutant ENLs", "setting": "[4]; 1 g of the plasmid", "result": "ineffective"},
      {"measurement": "levels of AF9, AFF4, cyclin-T1 and DOT1L", "setting": "[5]", "result": "not significantly decreased"},
      {"measurement": "apoptosis", "setting": "[6]; 0.5 μM or shorter incubation (e.g. 4 days)", "result": "< 5", "unit": "%"},
      {"measurement": "apoptosis", "setting": "[6]; 7 days, 1 μM", "result": 22.7, "unit": "%"},
      {"measurement": "apoptosis", "setting": "[6]; 7 days, 3 μM", "result": 67.6, "unit": "%"},
      {"measurement": "EC50", "setting": "[7]", "result": "> 50", "unit": "µM"},
      {"measurement": "ENL level in the cytoplasmic extract", "setting": "[8]", "result": "significantly reduced"},
      {"measurement": "ENL level in the nucleus", "setting": "[8]", "result": "significantly reduced dose-dependently and almost depleted with 500 nM"},
      {"measurement": "expression of MYC", "setting": "[9]", "result": "dose-dependently decreased expression of MYC"},
      {"measurement": "EC50", "setting": "[10]", "result": "1.2 ± 0.23", "unit": "µM"},
      {"measurement": "EC50", "setting": "[11]", "result": "> 50", "unit": "µM"},
      {"measurement": "body weight", "setting": "[12]; 30 mg/kg/day for Day 3-15", "result": "did not cause significant weight losses"},
      {"measurement": "tumor growth", "setting": "[12]; 30 mg/kg/day for Day 3-15", "result": "significantly inhibited tumor growth"},
      {"measurement": "animal survival", "setting": "[12]; 30 mg/kg/day for Day 3-15, p<0.01", "result": "prolonged animal survivals"},
      {"measurement": "AF9, AFF4, cyclin-T1 and H3K79me2 at Myc and HoxA9 gene loci", "setting": "[13]", "result": "did not significantly lower down"}
    ]}
  ]
}
